Results published in patent US11254690B2, “PTEFb inhibiting macrocyclic compounds” (BAYER AKTIENGESELLSCHAFT, priority 2017, dated 2022).
pIC50: −log10 of the molar value. Where two headings read alike, the source gives them in different places.

Columns and labels:
CDK9/CycT1 = biological target: T1, CDK9/CycT1 (Homo sapiens, UniProt P50750); test: CDK9/CycT1 high ATP kinase assay (TR-FRET, 2 mM ATP); format: biochemical; conditions: for pIC50: 2 mM ATP, Method 1b, lower limit for IC50s about 1-2 nM; for Selectivity high ATP CDK9 over high ATP CDK2: IC50 (high ATP CDK2)/IC50 (high ATP CDK9): ratio from Methods 1b and 2b, minimal values for IC50s near the assay limit
T1 construct: Recombinant full-length His-tagged human CDK9 and CycT1; His; purchased Life Technologies PV4131; host or cells: insect cells
Method: 1b. CDK9/CycT1 High ATP Kinase Assay
CDK9/CycT1-inhibitory activity of compounds of the present invention at a high ATP concentration after preincubation of enzyme and test compounds was quantified employing the CDK9/CycT1 TR-FRET assay as described in the following paragraphs.
Recombinant full-length His-tagged human CDK9 and CycT1, expressed in insect cells and purified by Ni-NTA affinity chromatography, were purchased from Life Technologies (Cat. No PV4131). As substrate for the kinase reaction biotinylated peptide biotin-Ttds-YISPLKSPYKISEG (C-terminus in amide form) was used which can be purchased e.g. form the company JERINI peptide technologies (Berlin, Germany).
(§1) For the assay 50 nl of a 100 fold concentrated solution of the test compound in DMSO was pipetted into either a black low volume 384 well microtiter plate or a black 1536 well microtiter plate (both Greiner Bio-One, Frickenhausen, Germany), 2 μl of a solution of CDK9/CycT1 in aqueous assay buffer [50 mM Tris/HCl pH 8.0, 10 mM MgCl2, 1.0 mM dithiothreitol, 0.1 mM sodium ortho-vanadate, 0.01% (v/v) Nonidet-P40 (Sigma)] were added and the mixture was incubated for 15 min at 22° C. to allow pre-binding of the test compounds to the enzyme before the start of the kinase reaction. […] The concentration of CDK9/CycT1 was adjusted depending of the activity of the enzyme lot and was chosen appropriate to have the assay in the linear range, typical concentrations were in the range of 0.5 μg/ml. The reaction was stopped by the addition of 3 μl of a solution of TR-FRET detection reagents (0.33 μM streptavidine-XL665 [Cisbio Bioassays, Codolet, France] and 1.67 nM anti-RB(pSer807/pSer811)-antibody from BD Pharmingen [#558389] and 2 nM LANCE EU-W1024 labeled anti-mouse IgG antibody [Perkin-Elmer, product no. AD0077]) in an aqueous EDTA-solution (167 mM EDTA, 0.2% (w/v) bovine serum albumin in 100 mM HEPES pH 7.5).
(§2) The resulting mixture was incubated 1 h at 22° C. to allow the formation of complex between the phosphorylated biotinylated peptide and the detection reagents. Subsequently the amount of phosphorylated substrate was evaluated by measurement of the resonance energy transfer from the Eu-chelate to the streptavidine-XL. Therefore, the fluorescence emissions at 620 nm and 665 nm after excitation at 350 nm was measured in a TR-FRET reader, e.g. a Pherastar (BMG Labtechnologies, Offenburg, Germany) or a Viewlux (Perkin-Elmer). The ratio of the emissions at 665 nm and at […] was taken as the measure for the amount of phosphorylated substrate. The data were normalised (enzyme reaction without inhibitor=0% inhibition, all other assay components but no enzyme=100% inhibition).

CDK2/CycE = biological target: T2, CDK2/CycE (Homo sapiens, UniProt P24941); test: CDK2/CycE high ATP kinase assay (TR-FRET, 2 mM ATP); format: biochemical; conditions: Method 2b
T2 construct: GST; purchased ProQinase GmbH (Freiburg, Germany); host or cells: insect cells (Sf9)
Method: 2b. CDK2/CycE High ATP Kinase Assay
CDK2/CycE-inhibitory activity of compounds of the present invention at 2 mM adenosine-tri-phosphate (ATP) was quantified employing the CDK2/CycE TR-FRET (TR-FRET=Time Resolved Fluorescence Energy Transfer) assay as described in the following paragraphs.
Recombinant fusion proteins of GST and human CDK2 and of GST and human CycE, expressed in insect cells (Sf9) and purified by Glutathion-Sepharose affinity chromatography, were purchase from ProQinase GmbH (Freiburg, Germany). As substrate for the kinase reaction biotinylated peptide biotin-Ttds-YISPLKSPYKISEG (C-terminus in amid form) was used which can be purchased e.g. form the company JERINI peptide technologies (Berlin, Germany).
as §1, with “CDK2/CycE” for “CDK9/CycT1”, “about 10 ng/ml.” for “in the range of 0.5 μg/ml.”, “(0.333” for “(0.33”, “AD0077, as an alternative a Terbium-cryptate-labeled anti-mouse IgG antibody from Cisbio Bioassays can be used])” for “AD0077])”
as §2

A2780 cells = test: Proliferation assay, A2780; format: cell-based, human; conditions: 72-hour exposure, Cell Titre-Glo, read-out: Inhibition of A2780 cell proliferation IC50
Method: Cultivated tumour cells (HeLa, human cervical tumour cells, ATCC CCL-2; NCI-H460, human non-small cell lung carcinoma cells, ATCC HTB-177; DU 145, hormone-independent human prostate carcinoma cells, ATCC HTB-81; HeLa-MaTu-ADR, multidrug-resistant human cervical carcinoma cells, EPO-GmbH Berlin; Caco-2, human colorectal carcinoma cells, ATCC HTB-37; B16F10, mouse melanoma cells, ATCC CRL-6475) were plated at a density of 5,000 cells/well (DU145, HeLa-MaTu-ADR), 3,000 cells/well (NCI-H460, HeLa), 1,500 cells/well (Caco-2), or 1,000 cells/well (B16F10) in a 96-well multititer plate in 200 μL of their respective growth medium supplemented 10% fetal calf serum. After 24 hours, the cells of one plate (zero-point plate) were stained with crystal violet (see below), while the medium of the other plates was supplemented with the test substances in various concentrations (0 μM, as well as in the range of 0.0001-10 μM; the final concentration of the solvent dimethyl sulfoxide was adjusted to 0.1%) using a Hewlett-Packard HP D300 Digital Dispenser. The cells were incubated for 4 days in the presence of test substances. Cell proliferation was determined by staining the cells with crystal violet: the cells were fixed by adding 20 μl/measuring point of an 11% glutaric aldehyde solution for 15 minutes at room temperature. After three washing cycles of the fixed cells with water, the plates were dried at room temperature. The cells were stained by adding 100 μl/measuring point of a 0.1% crystal violet solution (pH 3.0). After three washing cycles of the stained cells with water, the plates were dried at room temperature. The dye was dissolved by adding 100 μl/measuring point of a 10% acetic acid solution. The extinction was determined by photometry at a wavelength of 595 nm. The change of cell number, in percent, was calculated by normalization of the measured values to the extinction values of the zero-point plate (=0%) and the extinction of the untreated ([…]) cells (=100%). The IC50 values (inhibitory concentration at 50% of maximal effect) were determined by means of a 4 parameter fit. A2780 human ovarian carcinoma cells (ECACC #93112519) and non-adherent MOLM-13 human acute myeloid leukemia cells (DSMZ ACC 554) were seeded at a density of 3,000 cell/well (A2780) or 5,000 cells/well (MOLM-13) in a 96-well multititer plate in 150 μL of growth medium supplemented 10% fetal calf serum. After 24 hours, cell viability of one plate (zero-point plate) was determined with the Cell Titre-Glo Luminescent Cell Viability Assay (Promega), while the medium of the other plates was supplemented with the test substances in various concentrations (0 μM, as well as in the range of 0.0001-10 μM; the final concentration of the solvent dimethyl sulfoxide was adjusted to 0.1%) using a Hewlett-Packard HP D300 Digital Dispenser. Cell viability was assessed after 72-hour exposure with the Cell Titre-Glo Luminescent Cell Viability Assay (Promega). IC50 values (inhibitory concentration at 50% of maximal effect) were determined by means of a 4 parameter fit on measurement data which were normalized to vehicle (DMSO) treated cells (=100%) and measurement readings taken immediately before compound exposure (=0%).

[1] = in vivo; cited from earlier work

T1 sequence (P50750 whole entry): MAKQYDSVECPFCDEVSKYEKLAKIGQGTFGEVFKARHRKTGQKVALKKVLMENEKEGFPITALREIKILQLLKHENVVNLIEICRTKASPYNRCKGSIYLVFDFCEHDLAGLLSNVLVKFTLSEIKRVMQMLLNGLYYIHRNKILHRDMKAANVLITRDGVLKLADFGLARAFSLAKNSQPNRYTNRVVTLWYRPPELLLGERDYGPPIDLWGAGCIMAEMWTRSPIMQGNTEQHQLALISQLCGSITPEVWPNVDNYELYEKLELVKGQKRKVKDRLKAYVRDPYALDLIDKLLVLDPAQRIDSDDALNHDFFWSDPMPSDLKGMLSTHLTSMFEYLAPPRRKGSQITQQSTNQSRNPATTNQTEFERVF
T1 sequence (O60563 whole entry partner): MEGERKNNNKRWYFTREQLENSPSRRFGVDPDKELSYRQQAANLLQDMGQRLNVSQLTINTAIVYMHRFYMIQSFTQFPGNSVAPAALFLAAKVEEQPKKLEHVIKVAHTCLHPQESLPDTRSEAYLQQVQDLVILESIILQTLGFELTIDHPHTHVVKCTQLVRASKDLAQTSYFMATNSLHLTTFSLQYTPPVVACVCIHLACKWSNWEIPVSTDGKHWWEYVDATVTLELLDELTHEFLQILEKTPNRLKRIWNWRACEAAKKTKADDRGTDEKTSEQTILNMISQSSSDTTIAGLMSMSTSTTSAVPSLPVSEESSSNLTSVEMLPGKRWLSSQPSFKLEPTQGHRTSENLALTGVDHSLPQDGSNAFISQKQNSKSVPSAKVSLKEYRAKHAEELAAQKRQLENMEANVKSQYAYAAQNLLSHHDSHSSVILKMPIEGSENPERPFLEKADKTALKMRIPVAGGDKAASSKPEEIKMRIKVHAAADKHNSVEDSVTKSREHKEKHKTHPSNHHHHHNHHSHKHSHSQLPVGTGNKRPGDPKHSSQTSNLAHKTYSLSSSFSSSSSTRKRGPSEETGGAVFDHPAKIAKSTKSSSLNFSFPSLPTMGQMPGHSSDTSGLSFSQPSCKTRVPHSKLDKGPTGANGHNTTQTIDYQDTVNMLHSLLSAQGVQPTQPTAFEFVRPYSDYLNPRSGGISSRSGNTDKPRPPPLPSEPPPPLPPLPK

Row | Structure (SMILES) | pIC50 (CDK9/CycT1) | Selectivity high ATP CDK9 over high ATP CDK2: IC50 (high ATP CDK2)/IC50 (high ATP CDK9) (CDK9/CycT1) | pIC50 (CDK2/CycE) | pIC50 (A2780 cells; Homo sapiens, A2780, 72 h) | pIC50 (A2780 cells) | protection against bronchospasms [1]
1 | CC1CCCCCOc2cc(ccc2F)-c2cc(ncc2F)Nc2cc(CS(C)(=O)=O)cc(n2)O1 (single isomer, unassigned) [Example 31, 3,22-difluoro-14-methyl-10-[(methylsulfonyl)methyl]-13,20-dioxa-5,7,26-triazatetracyclo[19.3.1.1^2,6.1^8,12]hexacosa-1 (25),2(27),3,5,8(26),9,11,21,23-nonaene] | 7.80 | 1250 | < 4.70 | 6.92 | – | –
2 | CC1CCCCCOc2cc(ccc2F)-c2cc(ncc2F)Nc2cc(CS(C)(=O)=O)cc(n2)O1 (single isomer, unassigned) [Example 32, 3,22-difluoro-14-methyl-10-[(methylsulfonyl)methyl]-13,20-dioxa-5,7,26-triazatetracyclo[19.3.1.1^2,6.1^8,12]hexacosa-1 (25),2(27),3,5,8(26),9,11,21,23-nonaene] | 7.74 | 277 | 5.30 | – | 6.84 | –
3 | C[N+]1(C)[C@@H]2C[C@@H](OC(=O)C(O)(c3cccs3)c3cccs3)C[C@H]1[C@@H]1O[C@@H]12 [tiotropium] | – | – | – | – | – | more than 6 hours
